Results from article PMC4778445, “Measurement of free glucocorticoids: quantifying corticosteroid-binding globulin binding affinity and its variation within and among mammalian species” (Conservation Physiology, 2015).

How the values were obtained:
Experiment in all cases: radioligand saturation binding, dextran-coated charcoal separation
[1] = biological target: T1, corticosteroid-binding globulin (CBG), deer mouse (Peromyscus maniculatus, UniProt A0A6J0EC89); details: labelled compound ([1,2,6,7-3H]corticosterone); 37 °C, ≥4 h, PBS with gelatin; separation at 0 °C; plasma 1/200; error SEM
T1 construct: gene Serpina6; native protein in charcoal-stripped plasma, not purified
T1 sequence (A0A6J0EC89 23-402): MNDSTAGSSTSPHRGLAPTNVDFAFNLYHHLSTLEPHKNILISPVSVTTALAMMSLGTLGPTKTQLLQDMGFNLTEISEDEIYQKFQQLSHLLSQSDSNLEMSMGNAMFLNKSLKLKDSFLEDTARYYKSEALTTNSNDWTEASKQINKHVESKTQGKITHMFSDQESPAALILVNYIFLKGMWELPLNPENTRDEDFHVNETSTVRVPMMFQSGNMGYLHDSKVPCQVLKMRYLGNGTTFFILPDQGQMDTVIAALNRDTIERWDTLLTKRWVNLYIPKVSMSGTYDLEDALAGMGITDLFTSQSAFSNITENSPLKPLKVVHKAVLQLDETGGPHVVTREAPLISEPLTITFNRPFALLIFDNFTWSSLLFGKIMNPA
Text: radioligand saturation binding, dextran-coated charcoal separation on corticosteroid-binding globulin (CBG), deer mouse

[2] = biological target: T2, corticosteroid-binding globulin (CBG), meadow vole (Microtus pennsylvanicus, UniProt Z9TXB6IQC5); details: labelled compound ([1,2,6,7-3H]corticosterone); 37 °C, ≥4 h, PBS with gelatin; separation at 0 °C; plasma 1/50; mean of two runs; error SEM
T2 construct: native protein in charcoal-stripped plasma, not purified
T2 sequence (Z9TXB6IQC5 21-398): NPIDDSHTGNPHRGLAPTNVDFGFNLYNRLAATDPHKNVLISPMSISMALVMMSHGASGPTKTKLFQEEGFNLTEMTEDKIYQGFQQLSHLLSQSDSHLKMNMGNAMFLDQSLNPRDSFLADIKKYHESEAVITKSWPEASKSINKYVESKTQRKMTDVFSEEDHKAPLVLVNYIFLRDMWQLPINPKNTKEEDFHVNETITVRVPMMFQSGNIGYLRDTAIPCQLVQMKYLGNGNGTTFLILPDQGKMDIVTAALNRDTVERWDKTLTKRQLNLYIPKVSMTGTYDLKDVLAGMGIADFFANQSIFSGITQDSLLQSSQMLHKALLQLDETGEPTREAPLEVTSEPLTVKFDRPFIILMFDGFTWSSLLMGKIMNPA
Text: radioligand saturation binding, dextran-coated charcoal separation on corticosteroid-binding globulin (CBG), meadow vole

[3] = biological target: T3, corticosteroid-binding globulin (CBG), Arctic wolf (Canis lupus, UniProt A0A8I3MUM2); details: labelled compound ([1,2,6,7-3H]cortisol); 37 °C, ≥4 h, PBS with gelatin; separation at 0 °C; serum 1/50; non-specific binding subtracted; error SEM
T3 construct: gene SERPINA6; native protein in charcoal-stripped serum (Toronto Zoo), not purified
T3 sequence (A0A8I3MUM2 23-404): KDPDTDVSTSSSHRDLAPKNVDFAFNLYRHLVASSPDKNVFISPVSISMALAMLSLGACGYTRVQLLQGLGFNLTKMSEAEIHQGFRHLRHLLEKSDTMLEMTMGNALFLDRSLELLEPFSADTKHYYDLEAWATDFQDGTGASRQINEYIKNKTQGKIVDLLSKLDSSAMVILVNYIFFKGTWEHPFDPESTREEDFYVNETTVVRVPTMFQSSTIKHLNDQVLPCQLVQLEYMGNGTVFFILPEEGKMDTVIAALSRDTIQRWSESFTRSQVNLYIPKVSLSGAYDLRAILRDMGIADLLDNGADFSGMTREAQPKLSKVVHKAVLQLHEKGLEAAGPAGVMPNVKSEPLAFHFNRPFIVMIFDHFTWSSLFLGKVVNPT
Text: radioligand saturation binding, dextran-coated charcoal separation on corticosteroid-binding globulin (CBG), Arctic wolf

[4] = biological target: T4, corticosteroid-binding globulin (CBG), Soay sheep (Ovis aries, UniProt P49920); details: labelled compound ([1,2,6,7-3H]cortisol); 37 °C, ≥4 h, PBS with gelatin; separation at 0 °C; plasma 1/50; error SEM
T4 construct: gene SERPINA6; native protein in charcoal-stripped plasma, not purified
T4 sequence (P49920 23-430): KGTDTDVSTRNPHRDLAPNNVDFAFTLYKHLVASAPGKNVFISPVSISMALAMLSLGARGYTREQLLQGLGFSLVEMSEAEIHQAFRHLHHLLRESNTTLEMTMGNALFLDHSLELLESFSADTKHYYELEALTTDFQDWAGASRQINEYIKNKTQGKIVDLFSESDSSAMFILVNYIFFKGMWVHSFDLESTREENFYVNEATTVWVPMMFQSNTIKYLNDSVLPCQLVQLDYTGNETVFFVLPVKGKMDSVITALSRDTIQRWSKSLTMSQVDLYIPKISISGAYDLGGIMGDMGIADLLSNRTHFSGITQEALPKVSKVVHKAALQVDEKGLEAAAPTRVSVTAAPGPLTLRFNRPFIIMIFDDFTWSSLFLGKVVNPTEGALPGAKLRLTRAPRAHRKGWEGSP
Text: radioligand saturation binding, dextran-coated charcoal separation on corticosteroid-binding globulin (CBG), Soay sheep

[5] = biological target: T5, corticosteroid-binding globulin (CBG), Siberian tiger (Panthera tigris, UniProt A0A8C9K299); details: labelled compound ([1,2,6,7-3H]cortisol); 37 °C, ≥4 h, PBS with gelatin; separation at 0 °C; serum 1/50; non-specific binding subtracted; error SEM
T5 construct: native protein in charcoal-stripped serum (Toronto Zoo), not purified
T5 sequence (A0A8C9K299 23-403): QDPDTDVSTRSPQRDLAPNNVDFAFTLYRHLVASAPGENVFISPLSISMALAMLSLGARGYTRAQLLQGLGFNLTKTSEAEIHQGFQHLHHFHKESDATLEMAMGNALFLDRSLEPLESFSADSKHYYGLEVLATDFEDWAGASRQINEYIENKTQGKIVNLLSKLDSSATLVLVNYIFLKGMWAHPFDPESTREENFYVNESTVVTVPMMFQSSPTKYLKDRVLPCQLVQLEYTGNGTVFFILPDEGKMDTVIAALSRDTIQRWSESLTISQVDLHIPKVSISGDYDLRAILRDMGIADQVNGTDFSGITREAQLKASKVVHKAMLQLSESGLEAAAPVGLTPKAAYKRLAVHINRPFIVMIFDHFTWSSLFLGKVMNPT
Text: radioligand saturation binding, dextran-coated charcoal separation on corticosteroid-binding globulin (CBG), Siberian tiger

[6] = biological target: T6, corticosteroid-binding globulin (CBG), cheetah (Acinonyx jubatus, UniProt A0A6I9ZWD2); details: labelled compound ([1,2,6,7-3H]cortisol); 37 °C, ≥4 h, PBS with gelatin; separation at 0 °C; serum 1/50; error SEM
T6 construct: gene LOC106977455; native protein in charcoal-stripped serum (Toronto Zoo), not purified
T6 sequence (A0A6I9ZWD2 23-404): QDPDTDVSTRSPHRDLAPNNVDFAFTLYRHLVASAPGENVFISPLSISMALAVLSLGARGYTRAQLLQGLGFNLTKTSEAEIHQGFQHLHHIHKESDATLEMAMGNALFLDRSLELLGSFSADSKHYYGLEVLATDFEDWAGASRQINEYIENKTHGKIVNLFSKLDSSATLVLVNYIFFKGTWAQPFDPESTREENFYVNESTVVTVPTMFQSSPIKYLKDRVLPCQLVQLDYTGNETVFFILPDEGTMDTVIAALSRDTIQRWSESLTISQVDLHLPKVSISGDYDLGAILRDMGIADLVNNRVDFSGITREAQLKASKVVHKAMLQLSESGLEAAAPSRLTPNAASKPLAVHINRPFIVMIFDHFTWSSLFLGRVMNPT
Text: radioligand saturation binding, dextran-coated charcoal separation on corticosteroid-binding globulin (CBG), cheetah

[7] = biological target: T7, corticosteroid-binding globulin (CBG), Bactrian camel (Camelus bactrianus, UniProt A0A9W3H1V5); details: labelled compound ([1,2,6,7-3H]cortisol); 37 °C, ≥4 h, PBS with gelatin; separation at 0 °C; serum 1/50; non-specific binding subtracted; error SEM
T7 construct: gene LOC105079894; native protein in charcoal-stripped serum (Toronto Zoo), not purified
T7 sequence (A0A9W3H1V5 24-405 limits assumed): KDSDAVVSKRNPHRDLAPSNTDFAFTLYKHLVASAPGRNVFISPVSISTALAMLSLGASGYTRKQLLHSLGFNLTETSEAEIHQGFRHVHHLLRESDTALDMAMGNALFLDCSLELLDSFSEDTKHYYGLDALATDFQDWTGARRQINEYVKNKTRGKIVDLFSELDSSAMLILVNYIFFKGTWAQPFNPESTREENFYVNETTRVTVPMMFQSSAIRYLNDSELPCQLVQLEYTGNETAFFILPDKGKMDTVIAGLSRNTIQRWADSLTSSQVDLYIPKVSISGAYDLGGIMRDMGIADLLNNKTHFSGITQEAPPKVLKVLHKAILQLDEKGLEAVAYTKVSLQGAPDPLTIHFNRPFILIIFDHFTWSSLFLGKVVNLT
Text: radioligand saturation binding, dextran-coated charcoal separation on corticosteroid-binding globulin (CBG), Bactrian camel

[8] = biological target: T8, corticosteroid-binding globulin (CBG), alpaca (Vicugna pacos, UniProt A0A6I9IEG0); details: labelled compound ([1,2,6,7-3H]cortisol); 37 °C, ≥4 h, PBS with gelatin; separation at 0 °C; serum 1/50; non-specific binding subtracted; error SEM
T8 construct: gene SERPINA6; native protein in charcoal-stripped serum (Toronto Zoo), not purified
T8 sequence (A0A6I9IEG0 18-405): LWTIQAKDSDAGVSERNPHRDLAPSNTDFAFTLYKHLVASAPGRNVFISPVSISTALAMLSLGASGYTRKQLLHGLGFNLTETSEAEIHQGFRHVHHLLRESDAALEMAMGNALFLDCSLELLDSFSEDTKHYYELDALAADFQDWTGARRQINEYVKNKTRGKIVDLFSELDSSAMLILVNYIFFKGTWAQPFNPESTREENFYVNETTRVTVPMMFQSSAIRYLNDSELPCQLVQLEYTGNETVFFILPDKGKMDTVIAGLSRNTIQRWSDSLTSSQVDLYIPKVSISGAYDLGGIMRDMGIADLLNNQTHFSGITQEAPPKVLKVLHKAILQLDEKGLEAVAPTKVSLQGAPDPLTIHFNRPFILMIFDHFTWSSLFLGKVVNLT
Text: radioligand saturation binding, dextran-coated charcoal separation on corticosteroid-binding globulin (CBG), alpaca

[9] = biological target: T9, corticosteroid-binding globulin (CBG), Arctic ground squirrel (Urocitellus parryii, UniProt A0A8D2GQE2); details: labelled compound ([1,2,6,7-3H]cortisol); 37 °C, ≥4 h, PBS with gelatin; separation at 0 °C; plasma 1/50; mean of four runs; error SEM
T9 construct: gene SERPINA6; native protein in charcoal-stripped plasma, not purified
T9 sequence (A0A8D2GQE2 23-403): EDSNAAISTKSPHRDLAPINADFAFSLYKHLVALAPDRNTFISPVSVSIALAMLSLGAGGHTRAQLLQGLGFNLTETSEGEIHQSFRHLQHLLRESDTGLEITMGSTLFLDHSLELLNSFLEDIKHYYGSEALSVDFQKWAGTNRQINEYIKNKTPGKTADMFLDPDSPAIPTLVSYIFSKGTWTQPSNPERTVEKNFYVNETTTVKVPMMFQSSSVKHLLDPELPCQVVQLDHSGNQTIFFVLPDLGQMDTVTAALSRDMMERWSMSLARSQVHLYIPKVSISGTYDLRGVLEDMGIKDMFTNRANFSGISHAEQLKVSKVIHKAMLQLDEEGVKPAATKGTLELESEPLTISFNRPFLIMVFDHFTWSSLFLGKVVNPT
Text: radioligand saturation binding, dextran-coated charcoal separation on corticosteroid-binding globulin (CBG), Arctic ground squirrel

| Structure (SMILES) | Kd [1] [nM] | Kd [2] [nM] | Kd [3] [nM] | Kd [4] [nM] | Kd [5] [nM] | Kd [6] [nM] | Kd [7] [nM] | Kd [8] [nM] | Kd [9] [nM] |
| --- | --- | --- | --- | --- | --- | --- | --- | --- | --- |
| C[C@]12C[C@H](O)[C@H]3[C@@H](CCC4=CC(=O)CC[C@@]43C)[C@@H]1CC[C@@H]2C(=O)CO [B, corticosterone] | 4.9 ± 0.61 | 5.4 ± 1.2 | – | – | – | – | – | – | – |
| C[C@]12CCC(=O)C=C1CC[C@@H]1[C@@H]2[C@@H](O)C[C@@]2(C)[C@H]1CC[C@]2(O)C(=O)CO [F, cortisol] | – | – | 0.8 ± 0.11 | 1.7 ± 0.55 | 0.7 ± 0.19 | 8 ± 2.4 | 1 ± 0.16 | 0.6 ± 0.15 | 4 ± 0.4 |
